Data from patent publication US12186433B2, “Nanocapsules comprising modified nucleobases and/or nucleosides, hydrogels and oleogels comprising them and uses thereof” (UNIVERSITE D'ANGERS, priority 2017, dated 2025).

Key:
[1] = Cyt-C16 concentration in the hydrogels of LNCs by LC-MS/MS; type: physicochemical; settings: LC-MS/MS recovery in hydrogels
Protocol: The Cyt-C16 concentrations in the hydrogels of LNCs were determined using a LC-MS/MS apparatus: Alliance® 295 system (Waters, Saint-Quentin-en-Yvelines, France) with a Zorbax—Eclipse XDB-C18 column 4.6×150 mm, 3.5 μm, (Agilent Technologies, Santa Clara, United States). The temperature was fixed to 25° C. The mobile phase consisted of methanol with formic acid 0.1% (v/v), at a flow rate of 0.8 mL·min^−1. The injection volume was 10 μL. The total HPLC effluent was directed into a Quattro Micro® triple quadrupole mass spectrometer (Waters Saint-Quentin-en-Yvelines, France). Ionization was achieved using turbo ion spray in positive ion mode. The mass spectrometer operated in multiple reactions monitoring (MRM) mode. The […] transitions for Cyt-C16 was 482>112 and 482>350. Cyt-C16 was diluted in methanol at concentration from 1.25 to 200 ng·mL^−1, in presence of non-loaded LNCs, for the calibration curve. A volume of 50 μL of hydrogels was dissolved with deionized water at 1:4000 (v/v), to obtain a complete dispersion of LNCs. Then, a volume of 100 μL was mixed with 900 μL of methanol. Quantification of Cyt-C16 was achieved after filtration of this solution on 0.22-μm filter.

THP-1 cells = assay: Cellular toxicity, MTS assay, THP-1 cells; type: cell-based, human; settings: THP1 cell line, Cyt-C16 2.5% (w/wLabrafac) at the LNC surface
Protocol: THP-1 cells (human monocyte/macrophage cell line obtained from ATCC, Manassas, VA, USA) were grown in suspension at 37° C., 90% humidity, 5% CO2 in RPMI 1640 medium, completed with decomplemented FBS (10% v/v), penicillin (100 UI·mL^−1), streptomycin ([…]), amphotericin B ([…]), HEPES 10 mM (1% v/v), Pyruvate Sodium 100 mM (1% v/v) and β-mercaptoethanol 20 μM (1% v/v). Cell differentiation was induced in the same medium by adding PMA 200 nM. A 48-h incubation allows the cells to adhere (15·10^3 cells/well in a 96-well cell culture dish). After medium aspiration to eliminate non-adhered cells, cells were washed again with fresh medium.
B6-KPC3 cells (pancreas tumor from transgenic KPC mice) (gift from the Department of Oncology and Surgical Sciences of Padova, Pr. Vincenzo Bronte), were grown in suspension at 37° C., 90% humidity, 5% CO2 in DMEM medium, completed with decomplemented FBS (10% v/v), penicillin (100 UI·mL^−1), streptomycin ([…]), amphotericin B ([…]), HEPES 10 mM (1% v/v), L-glutamin 2 mM (1% v/v), and β-mercaptoethanol 20 μM (1% v/v). […] The cytotoxicitiy of diluted LNCs (diameter 50 or 100 nm), non-loaded or loaded with Cyt-C16 2.5% (w/wLabrafac), in cell culture medium, was determined. […] The percentage of cell viability was calculated according to the following equation: […]

B6-KPC3 cells = assay: Cellular toxicity, MTS assay, B6-KPC3 cells; type: cell-based, mice; settings: B6-KPC3 cell line, Cyt-C16 2.5% (w/wLabrafac) at the LNC surface
Protocol: B6-KPC3 cells (pancreas tumor from transgenic KPC mice) (gift from the Department of Oncology and Surgical Sciences of Padova, Pr. Vincenzo Bronte), were grown in suspension at 37° C., 90% humidity, 5% CO2 in DMEM medium, completed with decomplemented FBS (10% v/v), penicillin (100 UI·mL^−1), streptomycin ([…]), amphotericin B ([…]), HEPES 10 mM (1% v/v), L-glutamin 2 mM (1% v/v), and β-mercaptoethanol 20 μM (1% v/v). The cells (3.5·10^3 cells/well in 200-μL medium) were then plated on a 96-well cell culture dish and left to grow for 48 h at 37° C. The cytotoxicitiy of diluted LNCs (diameter 50 or 100 nm), non-loaded or loaded with Cyt-C16 2.5% (w/wLabrafac), in cell culture medium, was determined. Fresh cell culture medium was used as controls. […] The number of living cells was determined using a MTS (3-(4,5-dimethylthiazol-2-yl)-5-(3-carboxymethoxyphenyl)-2-(4-sulfophenyl)-2H-tetrazolium salt) assay (colorimetric assay based on the conversion of a tetrazolium salt into formazan). Formazan absorbance was measured at 492 nm and 750 nm, directly from well plates using a spectrophotometer Multiscan Ascent® MP reader (Thermo Scientific, Courtaboeuf, France), after exposition to MTS (20 μL per well) for 2.5 h at 37° C. The percentage of cell viability was calculated according to the following equation: […]

[2] = phase-inversion process
Excerpt: The LNCs formulation was based on a phase-inversion process, from oil-in-water emulsion at low temperature to water-in-oil emulsion at high temperature. The quantities of oil phase (Labrafac), aqueous phase (water and NaCl) and surfactants (Kolliphor and Span 80) for each formulation were precisely weighed. For 25 nm-diameter LNCs, mLabrafac=0.6 g, mKol=1.8 g, mSpan80=0.3 g, mWater=1.3 g and mNaCl=0.054 g; for 50 nm-diameter LNCs, mLabrafac=1.1168 g, mKol=0.9168 g, mSpan80=0.45 g, mWater=1.5168 g and mNaCl=0.054 g; for 75 nm-diameter LNCs, mLabrafac=1.8 g, mKol=1.3 g, mSpan80=0.3 g, mWater=0.6 g and mNaCl=0.054 g; for 100 nm-diameter LNCs, mLabrafac=1.8 g, mKol=0.95 g, mSpan80=0.3 g, mWater=0.95 g and mNaCl=0.054 g.
Then, Kolliphor and the aqueous phase were added and the mixture was heated to 75° C. under magnetic stirring followed by cooling to 45° C. (rate of 5° C.·min^−1). This cycle was repeated three times and during the last temperature decrease at the phase-inversion temperature (about 60° C.), an irreversible shock was induced by dilution with 2 mL of pure water. Afterwards, slow magnetic stirring was applied to the suspension of LNCs at room temperature, and a hydrogel was spontaneously formed. The gelation process was completed after 24 h at 4° C. Prior completed gelation, a part of the formulation was diluted by a factor of 60 (v/v) with pure water.

[3] = solubilized in Labrafac at 70° C., then cooling
Protocol: Cyt-C16 was solubilized in Labrafac at 70° C. under magnetic stirring. […] The viscoelastic properties of the oleogels (Cyt-016 from 0.005 to 0.2 mmol·g^−1 of Labrafac, corresponding to Cyt-C16 from 0.25 to 9.95% (w/wLabrafac)), at 25° C. were measured using a Kinexus® rheometer (Malvern Instruments S.A., United Kingdom), with a plate plate geometry (diameter 20 mm, gap: 800 μm). The oleogels were deposited directly on the bottom plate geometry of the rheometer and the top plate geometry was placed in contact with the sample. Oscillatory strain sweeps at 1 Hz constant frequency were performed to determine the linear regime characterized by constant dynamic moduli (elastic: G′ and viscous: G″ moduli), independent of the strain amplitude. In this regime (0.01% constant shear strain), G′ and G′ were measured as a function of angular frequency (0.1 to 10 Hz). In addition, a temperature ramp from 25 to 70° C. (2° C.·min^−1) was performed at 0.01% constant shear strain and 1 Hz constant angular frequency. All these experiments were repeated in triplicate.

CCCCCCCCCCCCCCCC(=O)Nc1ccn([C@@H]2O[C@H](CO)[C@@H](O)[C@H]2O)c(=O)n1 [Cyt-C16, 4-(N)-palmitoyl cytidine]
degradation of the molecule by the formulation process [1]: does not degrade | additional cytotoxicity in comparison to native LNCs (THP-1 cells): does not cause additional cytoxicity | additional cytotoxicity in comparison to native LNCs (B6-KPC3 cells): does not cause additional cytoxicity | effect of adding Cyt-C16 to the LNC formulation process [2]: the LNCs suspension turned into a hydrogel | oil gelation of Labrafac after cooling [3]: led to the oil gelation after cooling
